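Method: 48-hour compound exposure of cells in 96-well plates, five concentrations, linear interpolation of endpoints. The concentration for 50% growth inhibition is given as GI50.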 Activity calls are given as the source filed them. Rule as the data show it: active = GI50 up to about 1.1 µM and inactive = higher.
Assays:
Experiment in all cases: NCI-60 cell line screen, 48 h
CAKI-1 = tested on: CAKI-1
EKVX = tested on: EKVX
M14 = tested on: M14
MDA-MB-231 = tested on: MDA-MB-231
MDA-N = tested on: MDA-N
MOLT-4 = tested on: MOLT-4
Malme-3M = tested on: Malme-3M
NCI-H226 = tested on: NCI-H226
OVCAR-4 = tested on: OVCAR-4
RXF 393 = tested on: RXF 393
SF-268 = tested on: SF-268
SK-MEL-2 = tested on: SK-MEL-2
SK-MEL-5 = tested on: SK-MEL-5
SN12C = tested on: SN12C
SNB-19 = tested on: SNB-19
TK-10 = tested on: TK-10
UACC-257 = tested on: UACC-257
CCRF-CEM = tested on: CCRF-CEM
SK-OV-3 = tested on: SK-OV-3

Measured: GI50

Cc1ncc(COP(=O)(O)O)c(C)c1O
inactive: CAKI-1 > 100 µM | EKVX > 100 µM | M14 > 100 µM | MDA-MB-231 > 100 µM | MDA-N > 100 µM | MOLT-4 > 100 µM | Malme-3M > 100 µM | NCI-H226 > 100 µM | OVCAR-4 > 100 µM | RXF 393 > 100 µM | SF-268 > 100 µM | SK-MEL-2 > 100 µM | SK-MEL-5 > 100 µM | SN12C > 100 µM | SNB-19 > 100 µM | TK-10 > 100 µM | UACC-257 > 100 µM

CCOC(=O)c1c(NC(=O)c2ccc(Br)cc2)sc2c1CCCC2
inactive: CAKI-1 > 100 µM | CCRF-CEM > 100 µM | EKVX > 100 µM | M14 > 100 µM | MDA-MB-231 > 100 µM | MDA-N > 100 µM | MOLT-4 > 100 µM | NCI-H226 > 100 µM | RXF 393 > 100 µM | SF-268 > 100 µM | SK-MEL-2 > 100 µM | SK-MEL-5 > 100 µM | SN12C > 100 µM | SNB-19 > 100 µM | TK-10 > 100 µM | UACC-257 > 100 µM

N#Cc1c(C#N)c(SSc2c(C#N)c(C#N)c(N)n2-c2ccccc2)n(-c2ccccc2)c1N
inactive: CAKI-1 2.14 µM | EKVX 20.9 µM | M14 7.69 µM | MDA-MB-231 40.9 µM | MDA-N 28.8 µM | MOLT-4 5.89 µM | Malme-3M 2 µM | NCI-H226 22.3 µM | OVCAR-4 2.25 µM | RXF 393 18.3 µM | SF-268 27.7 µM | SK-MEL-2 21.1 µM | SK-MEL-5 6.22 µM | SK-OV-3 19.3 µM | SN12C 19.7 µM | SNB-19 22.4 µM | TK-10 1.82 µM | UACC-257 24.8 µM

O=C1CSC(c2ccc([N+](=O)[O-])cc2)N1c1nc(-c2ccc3c(c2)CCCC3)cs1 (stereo not given)
inactive: CAKI-1 > 100 µM | EKVX > 100 µM | MDA-MB-231 70.1 µM | MDA-N > 100 µM | MOLT-4 > 100 µM | Malme-3M > 100 µM | NCI-H226 > 100 µM | OVCAR-4 > 100 µM | RXF 393 > 100 µM | SF-268 > 100 µM | SK-MEL-2 39.5 µM | SK-MEL-5 51.1 µM | SN12C > 100 µM | SNB-19 > 100 µM | TK-10 > 100 µM | UACC-257 > 100 µM

N#CCc1nc2cc(C(F)(F)F)ccc2s1
inactive: CAKI-1 70.6 µM | EKVX 10.7 µM | MDA-MB-231 95.1 µM | MDA-N 32.2 µM | MOLT-4 7.96 µM | Malme-3M 42.6 µM | NCI-H226 57.8 µM | OVCAR-4 38.6 µM | RXF 393 52.2 µM | SF-268 34.8 µM | SK-MEL-5 50.7 µM | SK-OV-3 > 100 µM | SN12C 45.5 µM | TK-10 41.8 µM | UACC-257 34.4 µM

CN1CCC/C1=C1/C(=O)N(c2ccccc2)N=C1c1ccc[nH]1
inactive: CAKI-1 > 100 µM | CCRF-CEM > 100 µM | EKVX > 100 µM | M14 > 100 µM | MDA-MB-231 > 100 µM | MDA-N > 100 µM | MOLT-4 > 100 µM | Malme-3M > 100 µM | NCI-H226 > 100 µM | OVCAR-4 > 100 µM | RXF 393 > 100 µM | SF-268 > 100 µM | SK-MEL-2 > 100 µM | SK-MEL-5 > 100 µM | SN12C > 100 µM | SNB-19 > 100 µM | TK-10 > 100 µM | UACC-257 > 100 µM

N#CC(Cc1ccccc1)N(CCC1=CCCCC1)Cc1ccccc1 (stereo not given)
inactive: CAKI-1 > 100 µM | EKVX 56.5 µM | M14 44.6 µM | MDA-MB-231 > 100 µM | MDA-N 32.4 µM | MOLT-4 22.3 µM | Malme-3M 40.8 µM | OVCAR-4 83.9 µM | RXF 393 46.1 µM | SF-268 > 100 µM | SK-MEL-2 57.8 µM | SK-MEL-5 22.3 µM | SK-OV-3 > 100 µM | SNB-19 > 100 µM | TK-10 > 100 µM | UACC-257 43.8 µM

NCCNC(=O)CN(CC(=O)O)C1CCCCC1N(CC(=O)O)CC(=O)O (stereo not given)
inactive: CAKI-1 > 100 µM | CCRF-CEM > 100 µM | EKVX > 100 µM | M14 > 100 µM | MDA-MB-231 > 100 µM | MDA-N > 100 µM | MOLT-4 > 100 µM | Malme-3M > 100 µM | NCI-H226 > 100 µM | OVCAR-4 > 100 µM | SF-268 24.4 µM | SK-MEL-2 > 100 µM | SK-MEL-5 > 100 µM | SK-OV-3 > 100 µM | SN12C > 100 µM | SNB-19 > 100 µM | TK-10 > 100 µM | UACC-257 > 100 µM

[N-]=[N+]=Nc1cc(=O)n2c3c(cccc13)CCC2
inactive: CCRF-CEM > 100 µM | EKVX 43.7 µM | M14 > 100 µM | MDA-MB-231 > 100 µM | MDA-N > 100 µM | MOLT-4 > 100 µM | Malme-3M > 100 µM | NCI-H226 > 100 µM | OVCAR-4 > 100 µM | RXF 393 > 100 µM | SF-268 > 100 µM | SN12C > 100 µM | TK-10 > 100 µM | UACC-257 > 100 µM

C=C(C)CNC(=S)N(N)c1ccc(OC)cc1
inactive: CCRF-CEM 94 µM | EKVX 82.2 µM | M14 > 100 µM | MDA-MB-231 > 100 µM | MDA-N 99.3 µM | MOLT-4 96.6 µM | Malme-3M > 100 µM | NCI-H226 > 100 µM | OVCAR-4 > 100 µM | RXF 393 > 100 µM | SF-268 55.3 µM | SK-MEL-5 > 100 µM | SK-OV-3 > 100 µM | SN12C 66.8 µM | SNB-19 > 100 µM | TK-10 > 100 µM | UACC-257 > 100 µM

CCC(C)(C)c1ccc(OCCCCNC(=O)c2ccc3ccccc3c2O)c(C(C)(C)CC)c1
inactive: CAKI-1 23 µM | CCRF-CEM 9.68 µM | EKVX 21.8 µM | M14 48.9 µM | MDA-MB-231 30 µM | MDA-N 35.6 µM | MOLT-4 16.1 µM | Malme-3M 11 µM | NCI-H226 12.6 µM | OVCAR-4 > 100 µM | SF-268 22.7 µM | SK-MEL-2 30.8 µM | SK-MEL-5 19.3 µM | SK-OV-3 74 µM | SN12C 34.6 µM | SNB-19 55.2 µM | TK-10 13.4 µM | UACC-257 28 µM

CC1=CC(=O)/C(=C/NC(=O)NN)C(=O)O1
inactive: CAKI-1 > 100 µM | CCRF-CEM > 100 µM | EKVX 34.1 µM | M14 > 100 µM | MDA-MB-231 > 100 µM | MDA-N > 100 µM | MOLT-4 > 100 µM | OVCAR-4 > 100 µM | RXF 393 > 100 µM | SF-268 > 100 µM | SK-MEL-2 > 100 µM | SK-MEL-5 > 100 µM | SK-OV-3 > 100 µM | SN12C > 100 µM | SNB-19 > 100 µM | TK-10 > 100 µM | UACC-257 > 100 µM
